For one assay, the target named is T1, OR2/OR7 (Anopheles gambiae, UniProt Q7QCC7+Q8WTE6).
T1 construct: Full-length cDNAs for mosquito (Anopheles gambiae) odorant receptor (OR1, OR2, OR7, OR8, OR28); expressed in transfected cells
T1 sequence (Q8WTE6 1-378): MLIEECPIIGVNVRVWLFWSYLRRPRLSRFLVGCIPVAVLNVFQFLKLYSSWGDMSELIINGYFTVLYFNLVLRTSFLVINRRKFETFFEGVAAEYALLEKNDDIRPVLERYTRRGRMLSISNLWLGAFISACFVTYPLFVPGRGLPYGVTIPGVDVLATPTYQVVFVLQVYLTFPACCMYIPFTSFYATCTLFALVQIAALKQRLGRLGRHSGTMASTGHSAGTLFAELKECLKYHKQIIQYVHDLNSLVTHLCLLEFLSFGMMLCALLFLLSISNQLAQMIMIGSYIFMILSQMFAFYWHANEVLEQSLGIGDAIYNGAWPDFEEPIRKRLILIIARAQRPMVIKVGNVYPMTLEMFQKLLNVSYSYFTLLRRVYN
T1 sequence (Q7QCC7 1-478): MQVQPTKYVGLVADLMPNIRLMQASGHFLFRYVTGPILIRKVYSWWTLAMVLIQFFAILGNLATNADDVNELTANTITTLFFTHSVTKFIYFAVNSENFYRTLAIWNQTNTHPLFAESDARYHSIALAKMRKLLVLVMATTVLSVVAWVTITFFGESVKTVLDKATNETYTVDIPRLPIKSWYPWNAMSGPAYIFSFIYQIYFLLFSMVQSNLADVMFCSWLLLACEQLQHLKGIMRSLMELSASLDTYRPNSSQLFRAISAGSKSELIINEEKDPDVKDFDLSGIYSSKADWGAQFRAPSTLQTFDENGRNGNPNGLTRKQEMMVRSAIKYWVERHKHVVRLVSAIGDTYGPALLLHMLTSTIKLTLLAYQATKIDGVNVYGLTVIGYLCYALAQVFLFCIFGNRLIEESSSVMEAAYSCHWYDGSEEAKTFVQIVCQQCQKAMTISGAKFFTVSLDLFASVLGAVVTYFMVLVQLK
As to the kind of experiment: Ca2+-imaging of stable HEK293T cell line OR2/OR7. The assay is classed as cell-based. As to the method: (§1) Full-length cDNAs for mosquito (Anopheles gambiae) odorant receptor (OR1, OR2, OR7, OR8, OR28), and fly (Drosophila melanogaster) odorant receptor (Or47a, Or83b), mouse TRP channel (TRPM8), and mouse serotonin receptor (5HT3) were obtained and subcloned into mammalian expression vectors. The following mammalian expression vectors were used:
(§2) Stable cell lines OR1/OR7, OR2/OR7, OR8/OR7, OR10/OR7, OR28/OR7 and TRPM8 were generated from HEK293T cells. HEK293T-based cell lines were cultured in DMEM supplemented with these additional antibiotics: 6 μg/mL blasticidin and 1 μg/mL puromycin, with the exception of the TRPM8 cell lines, which was cultured in DMEM supplemented with 1 μg/mL puromycin.
(§3) Cells were trypsinized and split into 35 mm dishes one day before transfection. Confluent cells (60-70%) in 35 mm dishes were transfected with 1 μg of insect OR(X) plasmids in pME18s-bla and 1 μg of OR7-pME18s-puro using lipofectamine 2000. For Anopheles odorant receptors, two plasmids were co-transfected into HEK cells: the ligand-specific receptor (OR1, OR2, OR8, OR28) and the corresponding olfactory co-receptor: OR7. Cell lines containing TRPM8 were transfected with single plasmid.
(§4) Stable cell lines were cultured in 10 cm dishes, and confluent cells (70-80%) were trypsinized. 10,000 cells/20 μL were transferred into each well of 384-well plates coated with poly-D-lysine, and cultured for 2 days. For Flip-In T-Rex cells (cell lines expressing Or47a/Or83b and 5HT3), 5 μL of tetracycline (5 μg/mL) were added 1 day before the assay. 20 μL of Ca-4 dye was loaded into each well for 1.5 hr at room temperature in the dark, and the dye-loaded plates were subjected to Ca^2+-imaging using a Hamamatsu FDSS6000 real time fluorescence plate reader. Odorant solutions (9× final concentration) were prepared by dissolving 1M stock solutions into Hank's Buffered Salt Solution (HBSS), and 30 μL of odor solution was transferred to each well in 384-well plates.
(§5) Compounds ([…] in DMSO) were stored in 384-well plates, and last two columns (32 wells total) contained only DMSO. 200 nL of small compounds were transferred into the odorant plates before the assay using the Perkin-Elmer Janus workstation. The odorant plates were spun down to remove air bubbles, and placed on the FDSS6000 plate loader, and 5 μL of odorant solution was applied to the cell plate on the FDSS6000. Ca^2+ increase was monitored with fluorescence at 525 nm by excitation at 485 nm.

For the next assay, the target named is T2, OR1/OR7 (Anopheles gambiae, UniProt Q7QCC7+Q8WTE7).
T2 construct: Full-length cDNAs for mosquito (Anopheles gambiae) odorant receptor (OR1, OR2, OR7, OR8, OR28); expressed in transfected cells
T2 sequence (Q8WTE7 1-417): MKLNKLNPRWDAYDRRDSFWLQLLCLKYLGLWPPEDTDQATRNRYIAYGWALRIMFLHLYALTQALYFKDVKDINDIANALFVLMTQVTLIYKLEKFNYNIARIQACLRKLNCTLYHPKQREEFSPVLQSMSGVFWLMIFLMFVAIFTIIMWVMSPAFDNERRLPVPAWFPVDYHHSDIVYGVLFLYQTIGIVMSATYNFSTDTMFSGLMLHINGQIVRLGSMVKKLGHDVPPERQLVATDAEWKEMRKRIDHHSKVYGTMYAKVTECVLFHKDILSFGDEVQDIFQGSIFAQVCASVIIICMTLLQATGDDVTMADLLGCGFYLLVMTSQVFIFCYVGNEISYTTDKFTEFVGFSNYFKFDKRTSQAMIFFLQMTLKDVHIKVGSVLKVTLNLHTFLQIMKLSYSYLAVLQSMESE
T2 sequence (Q7QCC7 1-478): T1 sequence (Q7QCC7 1-478)
Kind of assay: Ca2+-imaging of stable HEK293T cell line OR1/OR7. The class given is cell-based. The protocol:
as §1, §2, §3, §4, §5

The subject of assay [1] is ab5 neuron that expresses the Or47a/Or83b receptor. As to the kind of experiment: Single sensillum recordings of fly olfactory neurons. The class given is in vivo, Drosophila melanogaster. As to the method: Female flies (Drosophila melanogaster) of the w^1118 genotype were immobilized by inserting single adult flies into the wide end of a 200 μL pipette tip, and mounting this on a microscope cover glass with a piece of wax. Antennal olfactory neurons of immobilized flies were subjected to extracellular recording using a Syntech 10x AC probe connected to a Syntech IDAC4 amplifier. The recording electrode was inserted into the ab5 sensillum, which contains two olfactory sensory neurons (OSNs), and the reference electrode was placed into the eye. Action potentials in the OSNs induced by odorant stimulation were recorded. 15 μL of odorant [3-methyl-thio-1-propanol; diluted (v/v) in paraffin oil (10^−5 to 10^−3 dilution)], was applied to a filter strip, and 10 μL of test compounds, DEET, or solvent (100% ethanol) was applied on a second filter strip. Both filter strips were placed into a Pasteur glass pipette connected to the Syntech CS55 stimulus device, and applied to the fly antenna for 1 sec. Corrected spike increases were computed by subtracting the average spontaneous activity in 1 sec before odorant stimulus from the average activity during the stimulus.
The effect of selected compounds on odor-evoked action potentials was measured from the ab5 antennal sensillum, which houses the olfactory neuron that expresses the Or47a/Or83b receptor.

The mark [2] stands for this setting: ligand 2-methyl phenol 30 μM, read-out: IC50 OR2 OR7.
The mark [3] stands for this setting: ligand 4-methyl phenol 30 μM, read-out: IC50 OR1 OR7.

Like-named read-outs stand apart in the source and are kept apart here.

Regarding `CC(C)Nc1nc(NC(C)C)nc(C(F)(F)F)n1` [RU-T8], the IC50 at OR2/OR7 (setting [2]) and at OR1/OR7 (setting [3]) was less than 2000 nM throughout.

For `CC(C)Nc1nc(Cl)nc(NC(C)C)n1` [RU-T1], the IC50 at OR2/OR7 (setting [2]) and on OR1/OR7 (setting [3]) was less than 2000 nM in each case.

For the compound `Fc1cccc(Cl)c1Cn1ccnc1CN(CC1CCCC1)C1CC1` [RU-I4], the results for the IC50 on OR2/OR7 (setting [2]) and at OR1/OR7 (setting [3]) were 2000 to 20000 nM and less than 2000 nM, respectively.

Regarding `Cc1nc(NC(C)C)nc(NC(C)C)n1` [RU-T6], the concentration for half-maximal inhibition (IC50) (usually the concentration needed to halve the response being measured) on OR2/OR7 (setting [2]) is more than 20000 nM; on OR1/OR7 (setting [3]), 2000 to 20000 nM.

Turning to `CSc1nc(NC(C)C)nc(NC(C)C)n1` [RU-T2], the IC50 against OR2/OR7 and against OR1/OR7 was 2000 to 20000 nM each time.

Turning to `CN(Cc1nccn1Cc1c(F)cccc1Cl)C(=O)C1CCCC1` [RU-I5], the IC50 on OR2/OR7 (setting [2]) and on OR1/OR7 (setting [3]) was less than 2000 nM in each case. Also, the “suppression of 3-methyl-thio-1-propanol (3MTP)-evoked action potentials in the ab5 neuron” value (from here on “suppression of 3-methyl-thio-1-propanol”) in assay [1] (10 mg dose on a filter paper) is reported as “inhibits responses elicited by 10^−3 to 5×10^−5 dilutions of 3MTP”.

Take `CCNc1nc(NCC)nc(SC)n1` [RU-T4]: the half-maximal inhibitory concentration (IC50) on OR2/OR7 (setting [2]) was 20000 to 50000 nM; on OR1/OR7 (setting [3]), 2000 to 20000 nM.

Consider `CCNc1nc(Cl)nc(NC(C)C)n1` [RU-T5], for which the IC50 at OR2/OR7 and against OR1/OR7 was less than 2000 nM each time.

Consider `C=CCN(Cc1nccn1Cc1cccc(F)c1)C(=O)c1ccccc1F` [RU-I1], for which the IC50 on OR2/OR7 (setting [2]) and at OR1/OR7 (setting [3]) was less than 2000 nM throughout. Besides, the “suppression of 3-methyl-thio-1-propanol” value in assay [1] (3.5 mg dose on a filter paper) is recorded as “inhibits responses elicited by 5×10^−4 to 10^−5 dilutions of 3MTP”; in assay [1] (10 mg dose on a filter paper), “inhibits responses elicited by 10^−3 to 10^−5 dilutions of 3MTP”.

In the case of `CC(C)Nc1nc(Cl)nc(N(C)C(C)C)n1` [RU-T7], the IC50 on OR2/OR7 (setting [2]) and on OR1/OR7 (setting [3]) was less than 2000 nM throughout.

On to `O=C(c1nccn1Cc1c(F)cccc1Cl)N(CC1CCCC1)C1CC1` [RU-I3], for which the IC50 at OR2/OR7 (setting [2]) is 2000 to 20000 nM; on OR1/OR7 (setting [3]), less than 2000 nM.

For `CCN(CC)C(=O)c1cccc(C)c1` [DEET, N,N-diethyl-m-toluamide, reference compound], the IC50 at OR2/OR7 is more than 20000 nM; on OR1/OR7, more than 740000 nM.

As to `O=C(C1CCCC1)N(Cc1nccn1CCc1c(F)cccc1Cl)C1CC1` [RU-I2], the IC50 on OR2/OR7 (setting [2]) and at OR1/OR7 (setting [3]) was less than 2000 nM each time. The “suppression of 3-methyl-thio-1-propanol” value was “inhibits responses elicited by 10^−4 to 10^−5 dilutions of 3MTP” in assay [1] (3.5 mg dose on a filter paper) and “inhibits responses elicited by 10^−3 to 10^−5 dilutions of 3MTP” in assay [1] (10 mg dose on a filter paper).

For `CC(C)Nc1nc(Cl)nc(NCc2ccccc2)n1` [RU-T9], the values for the IC50 at OR2/OR7 (setting [2]) and on OR1/OR7 (setting [3]) were more than 20000 nM and less than 2000 nM, respectively.

`CCNc1nc(NC(C)C)nc(SC)n1` [RU-T3]: the IC50 is 2000 to 20000 nM against OR2/OR7 and more than 220000 nM on OR1/OR7.

The values are drawn from US20130324522A1, “INSECT ODORANT RECEPTOR ANTAGONISTS” (THE ROCKEFELLER UNIVERSITY, priority 2010, published 2013).
